Measurements reported in ChEMBL document CHEMBL5291721, “A preclinical secondary pharmacology resource illuminates target-adverse drug reaction associations of marketed drugs” (Nat Commun, 2023).
Where a SMILES comes first, the peptide text is derived from it. [ ]: non-standard residue; d: D form. pGlu = O=C1CC[C@@H](C(=O)O)N1; Thz = O=C(O)[C@@H]1CSCN1

Columns and labels:
Adenosine receptor A1 = biological target: T1, Adenosine receptor A1 (Homo sapiens, UniProt P30542)
T1 sequence (P30542 whole entry): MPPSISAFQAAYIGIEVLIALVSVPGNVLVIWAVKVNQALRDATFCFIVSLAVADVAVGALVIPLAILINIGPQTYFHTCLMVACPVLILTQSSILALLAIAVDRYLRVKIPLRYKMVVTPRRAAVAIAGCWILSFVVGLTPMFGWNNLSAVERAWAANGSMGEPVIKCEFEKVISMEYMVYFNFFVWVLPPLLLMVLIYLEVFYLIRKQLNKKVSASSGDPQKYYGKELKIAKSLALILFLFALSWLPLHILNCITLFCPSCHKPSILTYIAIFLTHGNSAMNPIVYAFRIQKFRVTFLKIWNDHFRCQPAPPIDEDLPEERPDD

Adenosine receptor A3 = biological target: T2, Adenosine receptor A3 (Homo sapiens, UniProt P0DMS8)
T2 sequence (P0DMS8 whole entry): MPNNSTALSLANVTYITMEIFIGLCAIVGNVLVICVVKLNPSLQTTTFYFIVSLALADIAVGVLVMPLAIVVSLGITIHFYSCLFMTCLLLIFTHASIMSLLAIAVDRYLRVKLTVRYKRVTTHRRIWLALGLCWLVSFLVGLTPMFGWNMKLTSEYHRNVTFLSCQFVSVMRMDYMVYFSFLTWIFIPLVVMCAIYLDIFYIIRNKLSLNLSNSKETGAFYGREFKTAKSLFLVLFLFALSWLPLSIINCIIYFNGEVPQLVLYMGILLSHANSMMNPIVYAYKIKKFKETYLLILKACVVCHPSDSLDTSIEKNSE

[1] = biological target: T3, Muscarinic acetylcholine receptor M2 (Homo sapiens, UniProt P08172); format: functional, cell-based
T3 sequence (P08172 whole entry): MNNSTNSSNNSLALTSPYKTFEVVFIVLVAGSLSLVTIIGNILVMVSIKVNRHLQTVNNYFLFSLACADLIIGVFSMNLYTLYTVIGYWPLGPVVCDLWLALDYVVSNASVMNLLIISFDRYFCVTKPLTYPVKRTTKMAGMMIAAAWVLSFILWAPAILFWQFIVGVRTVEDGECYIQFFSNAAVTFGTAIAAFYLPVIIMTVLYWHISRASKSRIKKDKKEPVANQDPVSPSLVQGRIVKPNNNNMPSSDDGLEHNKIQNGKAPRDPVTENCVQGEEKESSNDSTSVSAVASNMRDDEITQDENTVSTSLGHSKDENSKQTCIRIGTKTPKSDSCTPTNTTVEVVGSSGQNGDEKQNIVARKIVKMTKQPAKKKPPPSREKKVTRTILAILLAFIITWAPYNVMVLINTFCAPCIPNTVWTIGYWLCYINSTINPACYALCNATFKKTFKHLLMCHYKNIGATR

[2] = biological target: 5-hydroxytryptamine receptor 2B (Homo sapiens, UniProt P41595); format: functional, cell-based
5-hydroxytryptamine receptor 2B, sequence (P41595 whole entry): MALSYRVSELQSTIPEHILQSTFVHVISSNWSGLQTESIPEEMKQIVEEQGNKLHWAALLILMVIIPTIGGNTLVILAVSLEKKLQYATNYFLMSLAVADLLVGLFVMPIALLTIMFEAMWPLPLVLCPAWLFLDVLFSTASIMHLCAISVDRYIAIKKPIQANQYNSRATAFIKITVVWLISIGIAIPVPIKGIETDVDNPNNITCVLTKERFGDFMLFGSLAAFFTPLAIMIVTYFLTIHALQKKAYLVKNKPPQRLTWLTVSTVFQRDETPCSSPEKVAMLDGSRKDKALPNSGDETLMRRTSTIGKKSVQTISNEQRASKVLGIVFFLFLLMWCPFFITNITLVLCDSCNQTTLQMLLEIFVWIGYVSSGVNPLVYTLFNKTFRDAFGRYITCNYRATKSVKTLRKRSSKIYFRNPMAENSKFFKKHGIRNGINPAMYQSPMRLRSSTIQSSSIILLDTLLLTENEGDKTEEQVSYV

[3] = biological target: T4, 5-hydroxytryptamine receptor 2C (Homo sapiens, UniProt P28335)
T4 sequence (P28335 whole entry): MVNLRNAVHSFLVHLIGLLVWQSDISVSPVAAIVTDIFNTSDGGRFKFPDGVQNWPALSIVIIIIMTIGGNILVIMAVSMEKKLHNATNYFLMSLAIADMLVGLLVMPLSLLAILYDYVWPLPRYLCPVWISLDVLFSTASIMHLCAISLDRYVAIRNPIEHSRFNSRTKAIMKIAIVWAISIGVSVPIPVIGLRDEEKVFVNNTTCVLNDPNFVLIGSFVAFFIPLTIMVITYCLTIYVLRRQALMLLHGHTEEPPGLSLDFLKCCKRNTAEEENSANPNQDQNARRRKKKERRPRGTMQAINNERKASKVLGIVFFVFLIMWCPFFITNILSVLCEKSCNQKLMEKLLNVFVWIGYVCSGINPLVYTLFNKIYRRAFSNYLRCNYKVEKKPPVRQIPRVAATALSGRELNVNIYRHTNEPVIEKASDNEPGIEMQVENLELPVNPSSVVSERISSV

Motilin receptor = Motilin receptor (Homo sapiens, UniProt O43193)
Motilin receptor, sequence (O43193 whole entry): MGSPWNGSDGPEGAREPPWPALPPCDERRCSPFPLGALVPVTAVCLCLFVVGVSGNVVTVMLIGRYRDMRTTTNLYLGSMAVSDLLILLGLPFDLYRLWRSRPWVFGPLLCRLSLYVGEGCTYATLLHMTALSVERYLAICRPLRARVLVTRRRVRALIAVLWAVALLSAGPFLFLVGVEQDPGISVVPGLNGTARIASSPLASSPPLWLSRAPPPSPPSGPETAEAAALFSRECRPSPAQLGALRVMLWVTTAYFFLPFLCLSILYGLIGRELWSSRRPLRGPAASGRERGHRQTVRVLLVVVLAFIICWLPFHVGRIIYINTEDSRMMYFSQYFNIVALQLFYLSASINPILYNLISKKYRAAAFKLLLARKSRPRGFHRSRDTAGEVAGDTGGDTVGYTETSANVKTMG

Progesterone receptor = biological target: T5, Progesterone receptor (Homo sapiens, UniProt P06401); format: functional
T5 sequence (P06401 whole entry): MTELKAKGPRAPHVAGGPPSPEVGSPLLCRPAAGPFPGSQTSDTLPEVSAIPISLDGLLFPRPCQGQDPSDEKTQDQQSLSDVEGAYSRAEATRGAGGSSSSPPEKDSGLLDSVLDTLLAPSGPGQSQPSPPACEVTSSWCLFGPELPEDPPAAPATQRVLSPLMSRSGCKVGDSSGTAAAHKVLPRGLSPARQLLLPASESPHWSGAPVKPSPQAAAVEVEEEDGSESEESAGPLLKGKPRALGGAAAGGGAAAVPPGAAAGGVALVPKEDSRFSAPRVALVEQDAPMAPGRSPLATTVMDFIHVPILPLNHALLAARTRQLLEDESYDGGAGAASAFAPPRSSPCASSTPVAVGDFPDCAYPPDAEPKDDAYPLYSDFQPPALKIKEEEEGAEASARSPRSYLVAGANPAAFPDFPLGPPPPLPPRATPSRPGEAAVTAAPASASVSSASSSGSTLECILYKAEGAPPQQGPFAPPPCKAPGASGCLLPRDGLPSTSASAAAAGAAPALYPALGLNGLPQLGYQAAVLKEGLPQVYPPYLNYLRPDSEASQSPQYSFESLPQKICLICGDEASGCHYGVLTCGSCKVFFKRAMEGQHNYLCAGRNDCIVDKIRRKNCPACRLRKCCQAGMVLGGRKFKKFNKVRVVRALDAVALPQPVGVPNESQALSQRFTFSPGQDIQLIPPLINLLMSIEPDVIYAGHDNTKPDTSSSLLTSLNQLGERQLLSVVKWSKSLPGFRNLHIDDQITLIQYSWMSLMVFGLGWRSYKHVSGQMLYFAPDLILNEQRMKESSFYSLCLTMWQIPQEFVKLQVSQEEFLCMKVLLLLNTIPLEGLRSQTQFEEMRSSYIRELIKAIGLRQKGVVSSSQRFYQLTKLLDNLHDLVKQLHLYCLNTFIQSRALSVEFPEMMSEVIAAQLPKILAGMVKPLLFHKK

[4] = biological target: Sodium-dependent dopamine transporter (Homo sapiens, UniProt Q01959)
Sodium-dependent dopamine transporter, sequence (Q01959 whole entry): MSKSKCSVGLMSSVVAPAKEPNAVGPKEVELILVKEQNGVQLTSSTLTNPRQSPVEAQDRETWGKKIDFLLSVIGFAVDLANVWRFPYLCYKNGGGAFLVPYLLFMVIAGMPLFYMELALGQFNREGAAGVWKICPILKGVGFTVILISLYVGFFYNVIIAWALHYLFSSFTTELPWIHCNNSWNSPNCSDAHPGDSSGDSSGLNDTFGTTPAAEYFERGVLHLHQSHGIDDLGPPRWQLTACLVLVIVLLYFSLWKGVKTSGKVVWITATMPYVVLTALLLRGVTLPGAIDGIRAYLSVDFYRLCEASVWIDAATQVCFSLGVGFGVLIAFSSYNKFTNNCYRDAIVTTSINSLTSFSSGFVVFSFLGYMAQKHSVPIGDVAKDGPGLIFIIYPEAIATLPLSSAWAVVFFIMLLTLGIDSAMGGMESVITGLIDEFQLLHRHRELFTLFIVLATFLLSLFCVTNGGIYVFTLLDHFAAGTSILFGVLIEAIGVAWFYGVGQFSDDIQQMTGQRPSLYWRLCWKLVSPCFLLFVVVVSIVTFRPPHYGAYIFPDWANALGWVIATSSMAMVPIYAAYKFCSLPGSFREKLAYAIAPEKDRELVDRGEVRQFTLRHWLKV

[5] = biological target: Sodium-dependent noradrenaline transporter (Homo sapiens, UniProt P23975)
Sodium-dependent noradrenaline transporter, sequence (P23975 whole entry): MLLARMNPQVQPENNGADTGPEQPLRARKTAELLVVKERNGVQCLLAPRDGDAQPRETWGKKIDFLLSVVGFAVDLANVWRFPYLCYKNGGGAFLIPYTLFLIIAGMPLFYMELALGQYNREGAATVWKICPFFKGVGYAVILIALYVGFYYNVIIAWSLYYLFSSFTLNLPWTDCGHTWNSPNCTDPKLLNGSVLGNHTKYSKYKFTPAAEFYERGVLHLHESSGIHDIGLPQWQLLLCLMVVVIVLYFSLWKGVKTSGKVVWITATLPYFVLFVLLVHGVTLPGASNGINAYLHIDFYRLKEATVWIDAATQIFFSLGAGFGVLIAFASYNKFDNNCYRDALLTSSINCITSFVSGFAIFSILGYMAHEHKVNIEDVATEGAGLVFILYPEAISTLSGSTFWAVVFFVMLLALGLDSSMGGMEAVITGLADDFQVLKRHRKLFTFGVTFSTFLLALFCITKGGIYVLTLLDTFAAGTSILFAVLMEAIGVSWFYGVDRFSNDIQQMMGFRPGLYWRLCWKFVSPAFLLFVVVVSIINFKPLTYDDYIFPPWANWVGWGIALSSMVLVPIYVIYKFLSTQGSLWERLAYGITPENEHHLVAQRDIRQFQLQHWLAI

Histamine H3 receptor = Histamine H3 receptor (Homo sapiens, UniProt Q9Y5N1)
Histamine H3 receptor, sequence (Q9Y5N1 whole entry): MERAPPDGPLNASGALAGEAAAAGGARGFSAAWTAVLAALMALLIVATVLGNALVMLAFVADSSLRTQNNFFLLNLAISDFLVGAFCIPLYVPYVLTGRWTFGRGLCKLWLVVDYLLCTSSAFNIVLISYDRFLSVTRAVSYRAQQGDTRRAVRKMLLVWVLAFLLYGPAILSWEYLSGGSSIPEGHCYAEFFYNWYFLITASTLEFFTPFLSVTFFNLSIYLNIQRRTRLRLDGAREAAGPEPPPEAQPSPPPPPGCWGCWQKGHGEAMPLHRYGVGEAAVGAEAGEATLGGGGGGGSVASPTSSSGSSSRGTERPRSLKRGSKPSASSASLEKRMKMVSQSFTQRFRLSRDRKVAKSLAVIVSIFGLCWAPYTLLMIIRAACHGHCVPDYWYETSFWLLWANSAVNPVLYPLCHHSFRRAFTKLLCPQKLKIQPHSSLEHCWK
Note: assay procedure not described here.

Compound | AC50 (Adenosine receptor A1) | AC50 (Adenosine receptor A3) | AC50 [1] | AC50 [2] | AC50 [3] | AC50 (Motilin receptor) | AC50 (Progesterone receptor) | AC50 [4] | AC50 [5] | AC50 (Histamine H3 receptor)
COc1cc(C)c(/C=C/C(C)=C/C=C/C(C)=C/C(=O)O)c(C)c1C [ACITRETIN] | > 10 µM | > 10 µM | > 10 µM | > 10 µM | > 30 µM | > 10 µM | > 30 µM | > 10 µM | > 10 µM | > 10 µM
O=C(O)CCNC(=O)c1ccc(/N=N/c2ccc(O)c(C(=O)O)c2)cc1 [BALSALAZIDE] | > 30 µM | 27.4 µM | > 30 µM | > 30 µM | > 30 µM | > 30 µM | > 30 µM | > 30 µM | > 30 µM | 35.5 µM
Clc1ccc(CCC(Cn2ccnc2)Sc2c(Cl)cccc2Cl)cc1 (stereo not given) [BUTOCONAZOLE] | > 30 µM | 16 µM | > 30 µM | > 30 µM | > 30 µM | > 30 µM | 9.1 µM | 20 µM | > 30 µM | > 30 µM
CO/N=C(\C(=O)N[C@@H]1C(=O)N2C(C(=O)O)=C(CSc3nc(=O)c(=O)[nH]n3C)CS[C@H]12)c1csc(N)n1 [CEFTRIAXONE] | > 30 µM | > 30 µM | > 30 µM | > 30 µM | > 30 µM | > 30 µM | 23 µM | > 30 µM | > 30 µM | > 30 µM
CC(CN(C)C)C(C)(O)Cc1ccc(Cl)cc1 (stereo not given) [CLOBUTINOL] | > 30 µM | > 30 µM | > 10 µM | > 10 µM | > 30 µM | > 10 µM | > 30 µM | > 30 µM | > 30 µM | > 10 µM
Oc1ccc(CCNCCCCCCNCCc2ccccc2)cc1O [DOPEXAMINE] | > 30 µM | 12 µM | > 30 µM | > 30 µM | > 30 µM | > 30 µM | > 30 µM | 0.5 µM | 0.4 µM | 11 µM
CCN1CC(CCN2CCOCC2)C(c2ccccc2)(c2ccccc2)C1=O (stereo not given) [DOXAPRAM] | > 30 µM | > 30 µM | > 30 µM | > 30 µM | 0.071 µM | > 30 µM | > 30 µM | > 30 µM | > 30 µM | > 30 µM
CCc1cc2c(s1)-n1c(C)nnc1CN=C2c1ccccc1Cl [ETIZOLAM] | > 30 µM | > 30 µM | > 30 µM | > 30 µM | > 30 µM | > 30 µM | > 30 µM | > 30 µM | > 30 µM | > 30 µM
CCOC(=O)c1ncn2c1CN(C)C(=O)c1cc(F)ccc1-2 [FLUMAZENIL] | > 30 µM | > 30 µM | > 30 µM | > 30 µM | > 30 µM | > 30 µM | > 30 µM | > 30 µM | > 30 µM | > 30 µM
CC/C=C\C/C=C\C/C=C\C/C=C\C/C=C\CCCC(=O)OCC [ICOSAPENT ETHYL] | > 30 µM | 18 µM | > 30 µM | > 30 µM | > 30 µM | > 30 µM | 3.5 µM | > 30 µM | > 30 µM | > 30 µM
NNC(=O)c1ccncc1 [ISONIAZID] | > 30 µM | 32.7 µM | > 30 µM | > 30 µM | > 30 µM | > 30 µM | > 30 µM | > 30 µM | > 30 µM | > 30 µM
COc1ccc(CN2CCN(C(c3ccc(F)cc3)c3ccc(F)cc3)CC2)c(OC)c1OC [LOMERIZINE] | > 30 µM | 17 µM | 24 µM | > 30 µM | 16 µM | > 30 µM | > 30 µM | 16 µM | 18 µM | > 30 µM
O=C(NCCO[N+](=O)[O-])c1cccnc1 [NICORANDIL] | > 30 µM | > 30 µM | > 30 µM | > 30 µM | > 30 µM | > 30 µM | > 30 µM | > 30 µM | > 30 µM | > 30 µM
O=c1[nH]c2ccccc2n1CCCN1CCN(C(c2ccccc2)c2ccccc2)CC1 [OXATOMIDE] | > 30 µM | 15 µM | 6.6 µM | > 30 µM | 1.7 µM | 12 µM | > 30 µM | 0.9 µM | 3.2 µM | > 30 µM
COc1cc2[nH]c(C)c(CCN3CCN(c4ccccc4)CC3)c2cc1OC [OXYPERTINE] | > 30 µM | 20 µM | > 30 µM | > 30 µM | 0.49 µM | > 30 µM | > 30 µM | 2.3 µM | 14 µM | > 30 µM
OC[C@H]1O[C@@H](Oc2cc(O)cc(/C=C/c3ccc(O)cc3)c2)[C@H](O)[C@@H](O)[C@@H]1O [PICEID] | > 30 µM | > 30 µM | > 30 µM | > 30 µM | > 30 µM | > 30 µM | > 30 µM | > 30 µM | > 30 µM | > 30 µM
O=C1CC[C@@H](C(=O)N2CSC[C@H]2C(=O)O)N1 [PIDOTIMOD] ([pGlu]-[Thz]-OH) | > 30 µM | > 30 µM | > 30 µM | > 30 µM | > 30 µM | > 30 µM | > 30 µM | > 30 µM | > 30 µM | > 30 µM
